Data reported in patent publication US10912780B2, “Heterocyclic compounds useful as anti-bacterial agents and method for production thereof” (Bugworks Research, Inc., priority 2017, dated 2021).
Converted amounts (≈) assume the structure as drawn. “And” between values parts separate entries of the source, which are not always exact repeats. Identical values can stand only once.

How the values were obtained:
[1] = test system: Klebsiella pneumoniae ATCC 13883; assay: Minimum Inhibitory Concentration (MIC) in LB media; format: cell-based; details: Klebsiella pneumoniae, ATCC13883, read-out: Minimum Inhibitory Concentration K. pneumoniae ATCC 13883
From the text: (§1) The compounds of Formula (I) are of interest due to their potent antibacterial effects. The ability of the invention compounds disclosed herein to achieve an antibacterial effect may be evaluated with regard to their ability to inhibit the growth of bacterial species like Escherichia coli ATCC 25922, Staphylococcus aureus ATCC 29213, Klebsiella pneumoniae ATCC 13883, Acinetobacter baumannii ATCC 19606, Pseudomonas aeruginosa ATCC 27853, Enterococcus faecalis ATCC 29212 and Enterococcus faecalis ATCC 29212 using an assay based on the following Minimum Inhibitory Concentration (MIC) protocol:
(§2) The medium sterility is checked by incubating at 37° C. for a period of 48 h.
(§3) Bacterial cultures that are stored as glycerol stocks at −80° C. are sub cultured on LB agar plates to obtain isolated colonies. A single colony of each strain is cultured in LB broth. The cultures are incubated at 37 C, 200 rpm till they reach an optical density (OD at 600 nm) of 0.8 to 1. […] Test compounds are dissolved in dimethyl sulfoxide (DMSO) to a stock concentration of 4 mg/ml. A twofold dilution series of this DMSO stock is prepared in a 96 well V bottom microtitre plate from rows A to H. A 3 μL volume of these dilutions are transferred to a 96-well flat bottom microtitre assay plate. Controls to monitor the effects of DMSO and media sterility are included. Each well is inoculated with 150 μL of the above diluted culture. The plates are incubated at 37° C. overnight in a humidified incubator. The following morning, the plates are read using a Spectrophotometer at 600 nm wavelength. […] The antibacterial activity (MIC) determined against representative Gram positive (S. aureus, E. faecalis) and Gram negative (E.coli, -P. aeruginosa and A. baumannii) pathogen were reported Table 1.

[2] = test system: Escherichia coli ATCC 25922; assay: Minimum Inhibitory Concentration (MIC) in LB media; format: cell-based; details: Escherichia coli, ATCC25922, read-out: Minimum Inhibitory Concentration E. coli ATCC 25922
From the text: as §1, §2, §3

[3] = test system: Enterococcus faecalis ATCC 29212; assay: Minimum Inhibitory Concentration (MIC) in LB media; format: cell-based; details: Enterococcus faecalis, ATCC29212, read-out: Minimum Inhibitory Concentration E. faecalis ATCC 29212
From the text: as §1, §2, §3

[4] = test system: Pseudomonas aeruginosa ATCC 27853; assay: Minimum Inhibitory Concentration (MIC) in LB media; format: cell-based; details: Pseudomonas aeruginosa, ATCC27853, read-out: Minimum Inhibitory Concentration P. aeruginosa ATCC 27853
From the text: as §1, §2, §3

[5] = test system: Staphylococcus aureus ATCC 29213; assay: Minimum Inhibitory Concentration (MIC) in LB media; format: cell-based; details: Staphylococcus aureus, ATCC29213, read-out: Minimum Inhibitory Concentration S. aureus ATCC 29213
From the text: as §1, §2, §3

[6] = test system: K. pneumoniae [ATCC13883]; assay: Neutropenic thigh infection model in rat; format: in vivo; details: 10 mg/kg, i.v. bolus, neutropenic rat
[7] = test system: P. aeruginosa clinical strains; assay: Antibacterial susceptibility studies (MIC50 and MIC90) with clinical strains, CLSI guidelines; format: cell-based
E. coli clinical strains = assay: as above; format: cell-based
[8] = test system: E. cloacae clinical strains; assay: as above; format: cell-based
[9] = test system: K. pneumoniae clinical strains; assay: as above; format: cell-based
[10] = test system: A. baumannii clinical strains; assay: as above; format: cell-based
[11] = test system: P. aeruginosa [ATCC27853]; assay: Neutropenic lung infection model in rat; format: in vivo; details: 30 mg/kg, i.v. bolus, neutropenic rat, 24 h post infection
Experimental: The purpose of this study was to evaluate the efficacy of example 15 against P. aeruginosa [ATCC27853], following single dose intravenous infusion doses of 10, 30 and 100 mg/kg in a neutropenic lung infection model in rats
Prior to the start of the infection process, all animals were divided into different groups. All grouped cages of animals were carried to a procedure room, close to a biological safety cabinet. All infections were conducted in a biological safety cabinet, with appropriate personnel protection. Animals were placed into an induction chamber and anaesthesia was induced by exposing the animals to 3-5% Isoflurane in an oxygen flow set at approximately (˜) 1 liter per minute (LPM). Once the animals were in a sufficiently deep plane of anaesthesia as monitored by pedal reflex, they were removed and infected (2). […] A gentle mixing of inoculum between two animals was followed for uniform distribution.
The IV formulation vehicle used for example 15 was 10% of L-ascorbic acid in fresh MilliQ water (w/v) with pH adjusted to ˜4.0 with 1N Sodium hydroxide solution (w/v), and the dose volume was 10 mL/kg. Meropenem was formulated in saline. […] The dose levels of the test Example 15 were 10, 30 and 100 mg/kg.
All the animals in groups were sacrificed at 24 h post infection, as specified in experimental design, by an overdose of CO2 in an appropriate exposure chamber. The group 1 animals were sacrificed at 4 hrs post infection. The euthanized animals were dipped into 70% ethanol for surface decontamination. Entire Lung was aseptically isolated, weighed and placed into 1 mL of sterile CSDB broth, and homogenized (Omni Tip (220 V hand held)). Serial ten-fold dilutions of the lungs homogenates were prepared in sterile CSD broth and 0.05 mL of four dilutions for each tissue was plated onto CSDA agar plates. Bacterial colonies were enumerated following overnight incubation at 37° C. Bacterial densities were estimated as Log10 CFU/g lung. The Mean±SD Log10 CFU/g lung was estimated in each group. Significant differences between group means and control were analyzed by one way ANOVA, followed by a Dunnett's multiple comparison test, using Graphpad Prism at 95% confidence levels.

E. coli [ATCC25922] = assay: Urinary tract infection (UTI) rat model; format: in vivo; details: 30 mg/kg, i.v. bolus, rat UTI, 24 h post infection
Experimental: The purpose of this study is to assess the efficacy of Example 15 against E. coli [ATCC25922] following single dose intravenous infusion doses of 3, 10 and 30 mg/kg in a Urinary Tract Infection Rat Model
Prior to the start of the infection process all animals were divided into different groups. All grouped cages of animals were carried to a procedure room, close to a biological safety cabinet. All infections were conducted in a biological safety cabinet, with appropriate personnel protection. Animals were anaesthetized by intraperitoneal injection of ketamine & xylazine (60+10 mg/kg i.p.) cocktail. Once the animals were in a sufficiently deep plane of anaesthesia as monitored by pedal reflex, the abdominal wall of each rat was shaved with electric clippers and the skin was cleansed with 10% povidine iodine. After a 1.5 to 2 cm lower abdominal wall incision, the abdominal wall muscles were separated with blunt dissection. […] After the replacement of the bladder to its original location, the abdominal muscles were approximated using suture and the skin was closed. The wounds were cleansed using 10% povidine iodine.
The IV formulation vehicle used was 10% of L-ascorbic acid in fresh MilliQ water (w/v) with pH adjusted to 4.0 with 1N Sodium hydroxide solution (w/v), and the dose volume was 10 mL/kg. Meropenem was prepared in MilliQ water and the pH of solution was adjusted to 4.5 using HCl. Four hours post infection, animals were dosed intravenously, as single doses (for test compounds), as a constant rate infusion, under Ketamine 60 mg/kg IP+Xylazine 10 mg/kg IP anesthesia, at a dose volume of 10 ml/kg, at the rate of 0.03 ml/min. The dose levels of the test compounds were 3, 10 and 30 mg/kg. Meropenem was administered as a single bolus dose at a dose volume of 5 ml/kg. All the animals were sacrificed at 24 h post infection, as specified in experimental design, by an overdose of CO2 in an appropriate exposure chamber. The group 1 animals were sacrificed at 4 h post infection.
The euthanized animals were dipped into 70% ethanol for surface decontamination. The organs were removed aseptically; the bladder was cut away near the urethra, and the kidneys were removed by blunt dissection to avoid bleeding. The bladder and each kidney separately were be homogenized in PBS. The CFU per milliliter homogenate of bladder, & kidney were determined after 18 to 24 h of incubation at 37° C.

[12] = Enterobacter cloacae, E. cloacae clinical strains (88 strains)

SMILES: O=C(O)c1cn(C2CC2)c2cc(N3CCNCC3)c(F)cc2c1=O [Ciprofloxacin, reference compound]
- MIC [1]: 0.05 mg/L (≈ 0.151 µM)
- MIC [2]: 0.012 mg/L (≈ 0.0362 µM)
- MIC [3]: 0.4 mg/L (≈ 1.21 µM)
- MIC [4]: 0.1 mg/L (≈ 0.302 µM)
- MIC [5]: 0.4 mg/L (≈ 1.21 µM)
- MEAN ± SD (Log 10 CFU/g thigh) ([6]; 10 hr post infection): 3.28 ± 0.19 Log 10 CFU/g thigh
- Mean Log10CFU/g thigh reduction (wrt 2 h PI control: 4.72 Log10CFU/g thigh) ([6]; 10 hr post infection): 1.44 Log10CFU/g thigh
- Log 10 CFU/g thigh ([6]; individual animals, thigh harvested 10 hr post infection): 3.49 Log 10 CFU/g thigh and 3.11 Log 10 CFU/g thigh and 3.25 Log 10 CFU/g thigh

SMILES: C[C@@H](O)[C@H]1C(=O)N2C(C(=O)O)=C(S[C@@H]3CN[C@H](C(=O)N(C)C)C3)[C@H](C)[C@H]12 [Meropenem, reference compound]
- MIC ATCC27853 ([7]; P. aeruginosa reference strain ATCC27853, no unit in this line): 0.5 mg/L (≈ 1.3 µM)
- MIC50 ([7]; Pseudomonas aeruginosa): 2 mg/L (≈ 5.22 µM)
- MIC90 ([7]; Pseudomonas aeruginosa): 8 mg/L (≈ 20.9 µM)
- Minimum ([7]; lowest MIC among P. aeruginosa clinical strains (215 strains; Example 15: 176), no unit in this line): 0.03
- MIC ATCC25922 (E. coli clinical strains; E. coli reference strain ATCC25922, no unit in this line (MIC50/MIC90 lines: μg/ml)): 0.06 mg/L (≈ 0.156 µM)
- MIC50 (E. coli clinical strains; Escherichia coli): 0.06 mg/L (≈ 0.156 µM)
- MIC90 (E. coli clinical strains; Escherichia coli): 4 mg/L (≈ 10.4 µM)
- Minimum (E. coli clinical strains; lowest MIC among E. coli clinical strains (201 strains; Example 15: 176), no unit in this line): 0.03
- MIC50 [8, 12]: 0.25 mg/L (≈ 0.652 µM)
- MIC90 [8, 12]: 16 mg/L (≈ 41.7 µM)
- Minimum ([8]; lowest MIC among E. cloacae clinical strains (88 strains), no unit in this line): 0.06
- MIC ATCC13883 ([9]; K. pneumoniae reference strain ATCC13883, no unit in this line): 0.06 mg/L (≈ 0.156 µM)
- MIC50 ([9]; Klebsiella pneumoniae): 1 mg/L (≈ 2.61 µM)
- MIC90 ([9]; Klebsiella pneumoniae): 16 mg/L (≈ 41.7 µM)
- Minimum ([9]; lowest MIC among K. pneumoniae clinical strains (211 strains; Example 15: 176), no unit in this line): 0.03
- MIC ATCC19606 ([10]; A. baumannii reference strain ATCC19606, no unit in this line): 0.5 mg/L (≈ 1.3 µM)
- MIC50 ([10]; Acinetobacter baumannii): 8 mg/L (≈ 20.9 µM)
- MIC90 ([10]; Acinetobacter baumannii): 32 mg/L (≈ 83.4 µM)
- Minimum ([10]; lowest MIC among A. baumannii clinical strains (169 strains; Example 15: 132), no unit in this line): 0.03125
- MEAN ± SD (Log 10 CFU/g Lung) [11]: 5.04 ± 0.14 Log 10 CFU/g Lung
- Mean Log 10CFU/g lung reduction (wrt 4 h PI control 5.78 Log10CFU/g lung) [11]: 0.74 Log10CFU/g lung
- Log 10 CFU/g Lung ([11]; individual animals): 5.03 Log 10 CFU/g Lung and 5.18 Log 10 CFU/g Lung and 4.90 Log 10 CFU/g Lung
- MEAN ± SD (Log10 CFU/g kidneys) (E. coli [ATCC25922]): 4.41 ± 0.70 Log10 CFU/g kidneys
- Mean Log10 CFU/g kidney reduction (wrt 4 h PI control: 6.03 Log10 CFU/g kidneys) (E. coli [ATCC25922]): 1.62 Log10 CFU/g kidneys
- MEAN ± SD (Log 10 CFU/ml Bladder) (E. coli [ATCC25922]; bladder): 4.34 ± 0.32 Log 10 CFU/ml
- Mean Log10 CFU/ml Bladder reduction (wrt 4 h PI control: 6.49 CFU/ml Bladder) (E. coli [ATCC25922]; bladder): 2.15 Log10 CFU/ml
- Log10 CFU/g (Left Kidney) (E. coli [ATCC25922]; individual animals): 4.62 Log10 CFU/g and 4.41 Log10 CFU/g and 5.19 Log10 CFU/g
- Log10 CFU/g (Right Kidney) (E. coli [ATCC25922]; individual animals): 4.83 Log10 CFU/g and 3.13 Log10 CFU/g and 4.28 Log10 CFU/g
- Log 10 CFU/ml Bladder (E. coli [ATCC25922]; individual animals, bladder): 4.43 Log 10 CFU/ml and 4.62 Log 10 CFU/ml and 3.99 Log 10 CFU/ml
